Experimental data taken from patent US12268726B2, “Treatment of rhinosinusitis with P-glycoprotein inhibitors” (Massachusetts Eye and Ear Infirmary, priority 2012, dated 2025).
Like-named read-outs stand apart in the source and are kept apart here.

Assays:
P-gp [1] = molecular target: T1, P-gp (Homo sapiens, UniProt P08183); settings: Varma et al., 2003; cited from earlier work
P-gp [2] = molecular target: T1, P-gp; test: Steroid release from nasal polyp explants after dexamethasone incubation; format: cell-based; settings: polyp explants after 30-minute dexamethasone 0.05 mg/mL; PSC 833 (804) vs media alone
Procedure: The ability of nasal polyp explants to retain steroid after a 30-minute incubation in dexamethasone (0.05 mg/mL, n=6) was examined. Following incubation, polyp explants were placed either in media alone or in media containing the P-gp inhibitor PSC 833 (804) and the amount of steroid released by the explants into the surrounding media was measured.

PNECCs = test: 0.4% trypan blue cell survival assay in PNECCs; format: cell-based, human
Procedure: PNECC cells were exposed to 23 hours of stimulation with lipopolysaccharide (LPS, 0.05 mg/mL), which is a toll-like receptor 4 agonist and capable of eliciting a strong immune responses. Control cells were considered those exposed to culture medium alone (BEGM). A 0.4% trypan blue (Sigma, St. Louis, MO) cell survival assay was used to ensure the stimulant exposures were not cytotoxic. In all wells, less than 20% of cells were stained blue indicating greater than 80% survival of the cells. Following the LPS exposures, the media was removed from each well.
Cells were exposed to 23 hours of stimulation with LPS (0.05 mg/mL) with or without concomitant P-gp inhibition by PSC 833(8 micM), which was applied to cells 1 hour prior to LPS treatment. Control wells were considered those exposed to culture medium alone (BEGM). A 0.4% trypan blue (Sigma, St. Louis, MO) cell survival assay was used to ensure the stimulant and inhibitor exposures were not cytotoxic. In all wells less than 20% of cells were stained blue indicating greater than 80% survival. Following the LPS and PSC 833 exposures, the media was removed from each well. Cytokine concentrations for IL-6, IL-8, GM-CSF, and TSLP in each well were determined by ELISA according to the manufacturer guidelines (eBioscience, San Diego, CA). […]

P-gp [3] = molecular target: T1, P-gp; test: Intracellular dexamethasone retention in primary sinonasal epithelial cells (CRSwNP); format: cell-based; settings: LPS stimulated, three patients
From the text: These cultured primary sinonasal epithelial cells were stimulated with lipopolysaccharide (LPS) in the presence or absence of the P-gp inhibitor PSC 833.

P-gp [4] = format: cell-based, human; settings: PNECCs, mean
Procedure: Following removal of media from each well, the cytoplasmic and membranous protein fractions were isolated using a two-step extraction assay (DualXtract, Bulldog Bio, Inc., Portsmouth, NH). Membrane bound P-gp was quantified by subjecting the membranous fraction to ELISA (USCN Life Sciences Inc., Wuhan, P.R. China) and normalized to the cytoplasmic protein concentration.
In some wells, a specific P-gp inhibitor (PSC 833 8 micM, Tocris Bioscience, Bristol, UK) was applied to the cells 1 hour prior to LPS stimulation. Following the LPS and PSC 833 treatment, the media was removed from each well, and ELISA was performed to quantify membrane bound P-gp.

[5] = system: IL-6, IL-8, GM-CSF, TSLP secretion in PNECCs; test: LPS stimulated cytokine secretion (ELISA) in PNECCs; format: cell-based, human; settings: mean; for normalized IL-6 secretion: normalized to total media protein
Procedure: Cells were exposed to 23 hours of stimulation with LPS (0.05 mg/mL) with or without concomitant P-gp inhibition by PSC 833(8 micM), which was applied to cells 1 hour prior to LPS treatment. Control wells were considered those exposed to culture medium alone (BEGM). A 0.4% trypan blue (Sigma, St. Louis, MO) cell survival assay was used to ensure the stimulant and inhibitor exposures were not cytotoxic. In all wells less than 20% of cells were stained blue indicating greater than 80% survival. Following the LPS and PSC 833 exposures, the media was removed from each well. Cytokine concentrations for IL-6, IL-8, GM-CSF, and TSLP in each well were determined by ELISA according to the manufacturer guidelines (eBioscience, San Diego, CA). Cytokine concentrations were normalized to total media protein concentrations using a Pierce BCA Protein Assay Kit.

GM-CSF secretion = GM-CSF secretion in LPS stimulated CRSwNP primary sinonasal epithelial cells with dexamethasone; format: cell-based, human; settings: LPS 0.0125 mg/ml
From the text: The increase in intracellular corticosteroid concentration potentiates its anti-inflammatory effect. Primary sinonasal epithelial cell culture was derived from patients with chronic sinusitis with nasal polyps (CRSwNP) and stimulated with LPS, a component of gram negative bacterial cell walls.

[6] = system: GM-CSF, IL-6, IL-8, IL-25 secretion in HSNECCs; test: P-gp mediated cytokine secretion testing (ELISA) in HSNECCs; format: cell-based, human
Procedure: (§1) For P-gp mediated cytokine secretion testing, HSNECC cells were exposed to 0.05 mg/mL LPS stimulation for 23 hours with or without concomitant P-gp inhibition using PSC 833 (8 μM), which was applied one hour prior to LPS stimulation. Control wells were considered those exposed to culture medium alone (BEGM). A 0.4% trypan blue (Sigma, St. Louis, MO) cell survival assay was used to ensure the stimulant and inhibitor exposures were not cytotoxic. In all wells less than 20% of cells were stained blue indicating greater than 80% survival. Following the LPS and PSC 833 exposures, the media was removed from each well. Cytokine concentrations for GM-CSF, IL-6, IL-8, and IL-25 in each well were determined by ELISA according to the manufacturer guidelines (GM-CSF, IL-6, IL-8 eBioscience, San Diego, CA; IL-25 Assay Biotechnology, San Francisco, CA). Cytokine concentrations were normalized to total media protein concentrations using a Pierce BCA Protein Assay Kit.

HSNECC cells = format: cell-based; settings: human, 24 h, 8 µM
Procedure: as §1

P-gp [7] = test: Q-FIHC for membranous P-gp expression in PNECCs; format: cell-based, human; settings: LPS 0.05 mg/mL, 23 h
Procedure: Exclusion criteria included the following: diagnosis of chronic sinusitis, use of oral steroids or immunotherapy within the preceding 4 weeks, aspirin sensitivity, ciliary dysfunction, autoimmune disease, cystic fibrosis, or any known immunodeficiency. All tissues were derived from schneiderian mucosa within the middle meatus.
Mucosal biopsies were washed and digested in Pronase for 90 minutes at 37° C. Cell suspensions were separated from particulate matter by centrifugation and resuspended in basal epithelial growth medium (BEGM) (Lonza, Basel, Switzerland). Cells were plated for 2 hours on standard tissue culture plates to remove contaminating fibroblasts. Cells were then expanded for 3-5 days on collagen coated 75 cm 2 dishes (Corning Life Sciences, Corning, NY). Once confluent, the PNECCs were trypsinized and re-seeded evenly on human collagen type IV-coated 6-well tissue culture plates. Cultures were grown to 80% confluence in BEGM prior to testing. PNECC cells intended for immunohistochemistry were grown on tissue culture treated coverslips placed within the wells. […]
Q-FIHC for membranous P-gp expression was performed using previously described techniques (Kirkeby et al., 2005). […] The mean corrected luminosity was considered the staining intensity (calculated using Image J v1.45s) divided by the total number of pixels subtended by the cells.

P-gp [8] = test: ELISA of membrane-bound P-glycoprotein in CRSwNP HSNECCs; format: cell-based, human; settings: LPS 0.05 mg/mL, ng/mL normalized to total cytoplasmic protein (mcg/mL) per FIG. 17B
Procedure: Human sinonasal nasal epithelial cell cultures (HSNECCs) from five patients were grown from nasal polyps as previously described. Briefly, polyp samples were washed and digested in Pronase for 90 minutes at 37° C. Cell suspensions were separated from particulate matter by centrifugation and resuspended in BEGM. Cells were plated for 2 hours on standard tissue culture plates to remove contaminating fibroblasts. Cells were then expanded for 3-5 days on collagen coated 75 cm^2 dishes (Corning Life Sciences, Corning, NY). Once confluent, the HSNECCs were trypsinized and re-seeded evenly on human collagen type IV-coated 6-well and 96-well tissue culture plates. 6-well cultures were grown to 80% confluence in BEGM prior to cytokine and protein analysis. 96-well plates intended for the dose dependent inhibition assay were grown to 100% confluence. Cells intended for immunohistochemistry were grown on tissue culture treated coverslips.
Membrane-bound P-glycoprotein in HSNECCs was quantified as follows. After removal of media from each well, the cytoplasmic and membranous protein fractions were isolated using a two-step extraction assay (DualXtract, Bulldog Bio, Inc., Portsmouth, NH).

[9] = LPS 0.05 mg/mL + PSC 833 8 micM
[10] = LPS 0.05 mg/mL + PSC 833 8 μM, no inhibition

T1 sequence (P08183 whole entry): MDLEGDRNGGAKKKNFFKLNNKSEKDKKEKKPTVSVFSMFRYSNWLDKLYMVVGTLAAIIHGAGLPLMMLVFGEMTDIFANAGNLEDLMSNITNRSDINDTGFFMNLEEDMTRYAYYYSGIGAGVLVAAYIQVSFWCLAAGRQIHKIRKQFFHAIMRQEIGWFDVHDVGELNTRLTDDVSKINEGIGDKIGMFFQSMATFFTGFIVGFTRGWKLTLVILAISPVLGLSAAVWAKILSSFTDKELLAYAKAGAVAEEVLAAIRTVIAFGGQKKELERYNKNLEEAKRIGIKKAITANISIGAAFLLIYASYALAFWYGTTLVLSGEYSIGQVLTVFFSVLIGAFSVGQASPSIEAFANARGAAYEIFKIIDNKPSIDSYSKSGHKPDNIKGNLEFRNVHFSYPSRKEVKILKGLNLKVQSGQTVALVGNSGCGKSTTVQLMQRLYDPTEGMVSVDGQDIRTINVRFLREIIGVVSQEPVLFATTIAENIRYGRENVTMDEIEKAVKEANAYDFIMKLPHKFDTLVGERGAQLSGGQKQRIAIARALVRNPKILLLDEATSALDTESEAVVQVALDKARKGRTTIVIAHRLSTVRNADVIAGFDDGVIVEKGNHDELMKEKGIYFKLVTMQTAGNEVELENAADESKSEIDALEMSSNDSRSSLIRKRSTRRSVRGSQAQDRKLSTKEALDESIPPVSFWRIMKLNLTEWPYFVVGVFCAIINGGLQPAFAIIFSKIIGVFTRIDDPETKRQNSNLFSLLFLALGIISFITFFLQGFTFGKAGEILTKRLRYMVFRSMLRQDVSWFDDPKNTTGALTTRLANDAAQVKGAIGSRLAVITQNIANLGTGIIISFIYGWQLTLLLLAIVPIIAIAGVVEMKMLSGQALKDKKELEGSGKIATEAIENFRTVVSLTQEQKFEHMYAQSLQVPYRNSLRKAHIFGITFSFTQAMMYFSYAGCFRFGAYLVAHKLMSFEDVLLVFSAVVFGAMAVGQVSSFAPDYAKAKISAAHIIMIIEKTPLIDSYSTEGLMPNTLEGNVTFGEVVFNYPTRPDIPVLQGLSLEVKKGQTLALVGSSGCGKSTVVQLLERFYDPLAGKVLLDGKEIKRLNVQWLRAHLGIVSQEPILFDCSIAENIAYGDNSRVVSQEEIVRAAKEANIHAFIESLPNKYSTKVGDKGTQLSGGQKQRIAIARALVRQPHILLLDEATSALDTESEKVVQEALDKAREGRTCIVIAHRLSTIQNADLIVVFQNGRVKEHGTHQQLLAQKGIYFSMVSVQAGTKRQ

For `CCOC/C=C/c1ccc(-c2nc(-c3ccc(NC(C)C)cc3)c(-c3ccc(NC(C)C)cc3)[nH]2)cc1` [OC144093, 4-[2-[4-[(E)-3-ethoxyprop-1-enyl]phenyl]-4-[4-(propan-2-ylamino)phenyl]-1H-imidazol-5-yl]-N-propan-2-ylaniline], the “potency relative to the first and second-generation P-gp inhibitors” value (P-gp [1]) is given as “about 10 fold”.

With `C/C=C/C[C@@H](C)C(=O)[C@H]1C(=O)N[C@@H](C(C)C)C(=O)N(C)CC(=O)N(C)[C@@H](CC(C)C)C(=O)N[C@@H](C(C)C)C(=O)N(C)[C@@H](CC(C)C)C(=O)N[C@@H](C)C(=O)N[C@H](C)C(=O)N(C)[C@@H](CC(C)C)C(=O)N(C)[C@@H](CC(C)C)C(=O)N(C)[C@@H](C(C)C)C(=O)N1C` [PSC 833, 6-[(2S,4R,6E)-4-methyl-2-(methylamino)-3-oxo-6-octenoic acid]-7-L-valine-cyclosporin A] the “steroid release by explants into surrounding media” value (P-gp [2]) was “statistically significant decrease”, the “cell survival (trypan blue)” value (PNECCs; human, 24 h, 8 µM) was “greater than 80%” and the “intracellular dexamethasone retention relative to dexamethasone alone” value (P-gp [3]) was “increased intracellular dexamethasone retention”. The “normalized membranous P-gp (ELISA, normalized to cytoplasmic protein)” value (P-gp [4]; LPS + PSC 833 8 micM applied 1 hour prior to LPS, not significant vs LPS alone (p=0.115)) was 70.40, the “normalized GM-CSF secretion” value [5, 9] was 7.64 and the “normalized TSLP secretion” value [5, 9] was 5.13. For the same compound, the “normalized IL-8 secretion” value ([5]; LPS 0.05 mg/mL + PSC 833 8 micM, reduction not significant (p=0.313)) was 801.09, the “normalized IL-6 secretion” value [5, 9] was 37.60 and the “GM-CSF secretion compared to dexamethasone treatment alone” value (GM-CSF secretion; PSC833 (804) + dexamethasone 0.1 mg/mL) was “reduced GM-CSF secretion”. The “secretion of GM-CSF normalized to total media protein” value ([6]; LPS 0.05 mg/mL + PSC 833 8 μM) was 8.47+/−3.28 pcg/mL normalized to total med, the “secretion of IL-6 normalized to total media protein” value ([6]; LPS 0.05 mg/mL + PSC 833 8 μM) was 39.94+/−31.07 pcg/mL normalized to total med and the “secretion of IL-8 normalized to total media protein” value [6, 10] was 1608.41+/−471.94 pcg/mL normalized to total med. For the same compound, the “secretion of IL-25 normalized to total media protein” value [6, 10] was 0.073+/−0.038 pcg/mL normalized to total med and the “cell survival (trypan blue)” value (HSNECC cells) was “greater than 80%”.

In the case of `COc1cc2c(cc1OC)CN(CCc1ccc(NC(=O)c3cc(OC)c(OC)cc3NC(=O)c3cnc4ccccc4c3)cc1)CC2` [XR9576, N-[2-[[4-[2-(6,7-Dimethoxy-3,4-dihydro-1H-isoquinolin-2-yl)ethyl]phenyl]carbamoyl]-4,5-dimethoxyphenyl]quinoline-3-carboxamide], the “potency relative to the first and second-generation P-gp inhibitors” value (P-gp [1]) is listed as “about 10 fold”.

With lipopolysaccharide [LPS] the “cell survival (trypan blue)” value (PNECCs; PNECCs, LPS 0.05 mg/mL, 23 hours) was “greater than 80%”, the “mean corrected luminosity of membranous P-gp (Q-FIHC)” value (P-gp [7]) was 9.64 and the “normalized membranous P-gp (ELISA, normalized to cytoplasmic protein)” value (P-gp [4]; LPS 0.05 mg/mL alone, 23 h) was 19.63. The “normalized GM-CSF secretion” value ([5]; LPS 0.05 mg/mL alone, 23 h) was 39.92, the “normalized IL-8 secretion” value ([5]; LPS 0.05 mg/mL alone, 23 h) was 912.91 and the “normalized TSLP secretion” value ([5]; LPS 0.05 mg/mL alone, 23 h) was 6.65. The “normalized IL-6 secretion” value ([5]; LPS 0.05 mg/mL alone, 23 h) was 79.67, the “GM-CSF secretion versus unstimulated control cells” value (GM-CSF secretion) was “increased GM-CSF secretion” and the “secretion of GM-CSF normalized to total media protein” value ([6]; LPS 0.05 mg/mL alone, 23 hours) was 45.21+/−41.39 pcg/mL normalized to total med. For the same compound, the “secretion of IL-6 normalized to total media protein” value ([6]; LPS 0.05 mg/mL alone, 23 hours) was 63.16+/−36.37 pcg/mL normalized to total med, the “secretion of IL-8 normalized to total media protein” value ([6]; LPS 0.05 mg/mL alone, 23 hours) was 1041.17+/−550.52 pcg/mL normalized to total med and the “secretion of IL-25 normalized to total media protein” value ([6]; LPS 0.05 mg/mL alone, 23 hours) was 0.075+/−0.039 pcg/mL normalized to total med. The “mean normalized concentration of membranous P-gp (ELISA)” value (P-gp [8]) was 22.23+/−10.22.
